Measured values published in patent US20120100204A1, “TGF-Beta Stimulating Agent Compositions and Combinations” (TCP INNOVATIONS LTD, priority 2007, published 2012).

Tested on: human aortic vascular smooth muscle cells
Assay: toxicity to cultured smooth muscle cells
Format: cell-based
Method: The cells were cultured (37° C.; 5% CO2) in DMEM+20% foetal calf serum (FCS), and subcultured every 5 days at 1:2 dilution, using 0.02% trypsin/EDTA (Gibco).
For the experiments, the cells were subcultured into 12-well cluster plates at 1×10^5 cells/cm^2, and allowed to grow for 24 hrs. […] The cells were then incubated for either 24 hrs or 72 hrs depending on the experiment. All treatment conditions were established in triplicate.

SMILES: CC/C(=C(\c1ccccc1)c1ccc(OCCN(C)C)cc1)c1ccccc1 [Tamoxifen]
- concentrations toxic to the cells (after 24 hrs): above 33 μM
- doses toxic to the cells (after 72 hrs): above 10 μM
